From US9567371B2, “Short beta-defensin-derived peptides” (Yeda Research and Development Co. Ltd., priority 2009, dated 2017)
Peptide text beside a SMILES is read from it.

Key:
CD45 = CD45 membrane expression (flow cytometry); assay type: cell-based, human; details: tested cells, 3 hrs preincubation
Protocol: (§1) Various cell types (1×10^6/mL) were pretreated with the peptides for 3 hrs as described above, washed and then stained in staining buffer (PBS supplemented with 0.5% FCS and 0.01% sodium azide) with mouse anti-human CXCR4-PE, CCR5-FITC (R&D Systems, Minneapolis, Minn.) or CD45-FITC (ImmunoQuality Products, Groningen, The Netherlands) mAbs for 30 min at 4° C. and analyzed by flow cytometry as described (Kalinkovich, A., et al., 2006). Appropriate IgG were used as the isotype controls.
(§2) Recently, it has been shown that HBD3 could induce internalization of CXCR4 but not of CCR5 in the CEM T cells expressing both CXCR4 and CCR5 (Feng, Z. et al., 2006) implying CXCR4 specificity in HBD3 action.

pre-B-ALL G2 cells = test: Cell toxicity assay (propidium iodide exclusion, flow cytometry); assay type: cell-based, human; details: 6 and 24 h, FIG. 1
Protocol: FIG. 1. […] G2 cells (1×10^6/ml) were cultured in 96-well flat-bottom wells in serum free IMDEM culture medium supplemented with L-glutamine and antibiotics, for 6 and 24 h at 37° C. with the indicated peptides. Untreated cells served as a control. After treatment, cells were stained with propidium iodide (PI) and its exclusion was analyzed by flow cytometry. Data shown are the percentage of Pr (dead) cells. Vertical bars represent standard deviation of duplicate experiments. *P<0.05 compared to untreated control.
Pre-B-ALL G2 cells and freshly isolated primary human CD3^+ T cells (1×10^6/ml) were cultured in 96-well flat-bottom wells in serum free IMDM or RPMI 1640 medium, respectively, both supplemented with L-glutamine and antibiotics, for 6 and 24 hrs at 37° C. (95% humidity, 5% CO2) with 10 μM, 100 μM or 1 mM of the peptides. Untreated cells served as a control. Cell viability was determined by propidium iodide (PI) exclusion by flow cytometry as described (Goichberg, P., et al., 2006).
In order to test cytotoxicity of the peptides, human pre-B-ALL G2 cells and freshly isolated primary human CD3^+ T cells (1×10^6/ml) were cultured in with 10 μM, 100 μM or 1 mM of TL-1, AK-1 and cyclic TL-1, as described in the Material and Methods. All tested peptides were not toxic for G2 cells (FIG. 1) as well as for primary human T cells at 10 μM and 100 μM. Even in the highest concentration, 1 mM, the peptides killed only 8-12% and 14-16% cells treated for 6 and 24 hrs, respectively, indicating a very low cytotoxicity of the peptides.

G2 cells = test: Homing assay of pretreated G2 cells in NOD/SCID mice; assay type: in vivo, mouse; details: 10 μM pretreatment 3 hrs, i.v. into non-irradiated NOD/SCID mice, 16 hrs
Protocol: FIGS. 8A-8D. Effect of TL-1 and cyclic TL-1 on in vitro and in vivo cell migration. (A, C) Human CD3^+, G2, cord blood CD34^+ and peripheral blood mononuclear (PBMC) cells were preincubated with 1 and 10 μM TL-1 for 3 hrs in serum free medium, washed and allowed to migrate towards SDF-1. Migrated cells were collected and calculated by flow cytometry. Percentage of migrated cells is presented as compared to untreated (UT) control taken as 100%. (B) G2 cells were similarly preincubated with 10 μM TL-1 or cTL-1 for the indicated periods of time and percentage of migrated cells is depicted. (D) Homing assay. G2 cells were similarly preincubated with 10 μM TL-1 or cTL-1 for 3 hrs, washed and i.v. injected (10×10^6/mouse) to non-irradiated NOD/SCID mice. Percentage of G2 cells in the murine BM and spleens was determined by staining with anti-human CD45 Ab and compared with untreated (UT) cells. […]
G2 cells (10×10^6/mL) pretreated with the peptides for 3 hrs as described above, were injected i.v. into non-irradiated NOD/SCID mice, which were sacrificed 16 hrs later. Samples of BM cells flushed from both femur and tibia bones and spleen cell suspension were prepared, and the percentage of human cells was determined by staining with anti-human CD45-FITC mAb (ImmunoQuality Products, Groningen, The Netherlands) as described (Spiegel, A., et al., 2004).

CCR5 = CCR5 membrane expression (flow cytometry); assay type: cell-based, human; details: tested cells, 3 hrs preincubation
Protocol: FIGS. 10A-10C. TL-1 and cTL1 down-regulate CXCR4 expression on human cord blood CD34^+ and G2 cells. Human cord blood CD34^+ and G2 cells were incubated with 1 or 10 μM TL-1 or cyclic TL-1 for 3 hrs or left untreated (UT), washed, stained with CXCR4 and CCR5 Ab and analyzed by flow cytometry. Representative histograms from 3 separate experiments are shown. FIG. 10A—effect of TL-1 on CXCR4 expression. FIG. 10B—effect of cTL-1 on CXCR4 expression. FIG. 10C—effects of TL-1 and cTL-1 on CCR5 expression.
as §1, §2

N=C(N)NCCC[C@@H]1NC(=O)CNC(=O)[C@H](CCCNC(=N)N)NC(=O)[C@H](CCCCN)NC(=O)[C@H](CCCCN)NC(=O)[C@H](CCCNC(=N)N)NC(=O)[C@H](CCCNC(=N)N)NC(=O)[C@H](CS)NC(=O)[C@H](CS)NC(=O)[C@H](CCCCN)NC1=O [cyclic TL-1, 1,10-cyclo[RGRKCCRRKK]] (cyclo(CCRRKKRGRK))
membrane expression of CD45 (CD45): either unaffected or slightly increased
cellular toxicity (percentage of PI+ dead cells) (pre-B-ALL G2 cells): Low cellular toxicity
homing of pretreated G2 cells to the BM (G2 cells): decrease the homing
homing of pretreated G2 cells to the spleen (G2 cells): decreased G2 cell homing
membrane expression of CCR5 (CCR5): either unaffected or slightly increased
